Source: PubChem BioAssay AID686941 (The Scripps Research Institute Molecular Screening Center, 2013)

Tests used:
[1] = biological target: Cytochrome P450 3A5 (Homo sapiens) (UniProt P20815); assay: recombinant CYP3A isoform inhibitors – biochemical, LC-MS/MS, purified recombinant enzymes, counter-screen, late-stage follow-up (AID 686941); settings: recombinant CYP3A4/CYP3A5, LC-MS/MS metabolite formation, CYP3A5
[2] = biological target: Cytochrome P450 3A4 (Homo sapiens) (UniProt P08684); assay: as above; settings: recombinant CYP3A4/CYP3A5, LC-MS/MS metabolite formation; CYP3A4
Cytochrome P450 3A4 (Homo sapiens), sequence (P08684 whole entry, looked up): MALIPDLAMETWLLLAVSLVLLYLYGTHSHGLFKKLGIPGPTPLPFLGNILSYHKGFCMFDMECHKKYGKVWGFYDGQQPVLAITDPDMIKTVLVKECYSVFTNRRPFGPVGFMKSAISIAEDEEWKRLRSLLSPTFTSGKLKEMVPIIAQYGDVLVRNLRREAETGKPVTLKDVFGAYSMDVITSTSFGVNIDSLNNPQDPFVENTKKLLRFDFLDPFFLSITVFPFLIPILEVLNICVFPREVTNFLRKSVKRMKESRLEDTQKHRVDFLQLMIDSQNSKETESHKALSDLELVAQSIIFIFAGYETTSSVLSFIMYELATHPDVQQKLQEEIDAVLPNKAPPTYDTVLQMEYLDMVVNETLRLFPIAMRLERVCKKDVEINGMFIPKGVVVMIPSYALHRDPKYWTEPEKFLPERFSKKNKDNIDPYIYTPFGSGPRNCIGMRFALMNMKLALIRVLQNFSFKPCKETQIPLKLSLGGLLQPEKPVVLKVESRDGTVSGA

Cytochrome P450 3A5 (Homo sapiens), sequence (P20815 whole entry, looked up, canonical isoform): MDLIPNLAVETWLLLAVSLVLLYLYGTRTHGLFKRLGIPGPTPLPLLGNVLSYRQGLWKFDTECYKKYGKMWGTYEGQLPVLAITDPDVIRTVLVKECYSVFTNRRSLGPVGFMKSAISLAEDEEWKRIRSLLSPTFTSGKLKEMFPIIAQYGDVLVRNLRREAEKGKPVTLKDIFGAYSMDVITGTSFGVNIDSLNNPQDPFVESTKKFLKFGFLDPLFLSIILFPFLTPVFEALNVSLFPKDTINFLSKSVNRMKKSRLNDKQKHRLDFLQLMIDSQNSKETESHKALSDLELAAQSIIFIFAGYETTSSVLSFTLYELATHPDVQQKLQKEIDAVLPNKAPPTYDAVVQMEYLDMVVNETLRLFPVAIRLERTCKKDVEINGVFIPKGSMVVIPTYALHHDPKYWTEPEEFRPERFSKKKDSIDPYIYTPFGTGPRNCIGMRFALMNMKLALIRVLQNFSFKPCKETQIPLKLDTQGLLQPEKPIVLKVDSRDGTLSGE

SMILES | IC50 [1] [nM] | IC50 [2] [nM] | inhibition ([1]; at 60 µM, stronger effect = higher value) [%]
O=C(Nc1ccc(-c2ccc3ccccc3c2)cc1)Nc1ccc(-c2ccnc3nc[nH]c23)cc1 | 13000 | 1700 | –
NC(=O)c1ccc(-c2ccc(NC(=O)Nc3ccc(-c4ccnc5nc[nH]c45)cc3)cc2)cc1 | – | > 200 | 26
